Laboratory results published in paper PMC11502128 (Journal of Lipids, 2024).
Like-named read-outs stand apart in the source and are kept apart here.

Columns and labels:
[1] = target: T1, porcine PNLIP (pancreatic lipase) (Sus scrofa, UniProt P00591); assay: PNLIP inhibition and enzyme kinetics with p-nitrophenyl palmitate; format: biochemical; conditions: for Pancreatic lipase Mode of inhibition: Lineweaver–Burk plot
T1 sequence (P00591 1-450): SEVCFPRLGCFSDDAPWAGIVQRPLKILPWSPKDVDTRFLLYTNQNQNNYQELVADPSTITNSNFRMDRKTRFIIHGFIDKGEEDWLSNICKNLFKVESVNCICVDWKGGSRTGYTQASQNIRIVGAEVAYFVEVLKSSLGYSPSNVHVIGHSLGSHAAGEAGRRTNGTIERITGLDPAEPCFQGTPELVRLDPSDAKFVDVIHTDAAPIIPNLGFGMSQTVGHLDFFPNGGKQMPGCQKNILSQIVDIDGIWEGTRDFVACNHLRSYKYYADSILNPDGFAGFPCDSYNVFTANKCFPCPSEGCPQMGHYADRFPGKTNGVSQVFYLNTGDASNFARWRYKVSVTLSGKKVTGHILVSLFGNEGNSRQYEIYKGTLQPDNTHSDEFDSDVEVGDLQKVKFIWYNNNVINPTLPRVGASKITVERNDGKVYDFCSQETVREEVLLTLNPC
Description: The PNLIP inhibitory activity of the compounds was tested using p-nitrophenyl palmitate (p-NPP) as an artificial substrate. […] The reaction was initiated by adding 10 mM p-NPP at 37°C for 20 min. Then, the enzyme activity was determined calorimetrically by measuring the release of p-nitrophenol measured at 405 nm using a SpectraMax paradigm microplate reader (Molecular Devices Inc, San Jose, California). The IC50 values were determined using nonlinear regression from the absorbance versus concentration curves.
The modes of enzyme inhibition were determined using the reaction protocol described above. While all the other parameters remained unchanged, the enzyme activity was measured at increasing substrate concentrations (2–10 mM) in the presence and absence of the test compound (inhibitor). Double reciprocal (Lineweaver–Burk) plots were generated and used to determine the inhibition types Km and Vmax. The inhibitory constants (Ki) of the test compounds were also calculated.

HepG2 cells [2] = assay: Cell viability assessment (crystal violet), HepG2; format: cell-based, human; conditions: triterpenoids at 25 and 100 μM; lovastatin 50 μM
Description: The 3T3-L1 and HepG2 cells (at 70%–80% confluence) were seeded at concentrations of 0.2 × 10^4 per 100 μL and 5.0 × 10^4 per 100 μL, respectively, in a 96-well plate. […] Control cells were exposed to either 0.01% methanol (vehicle control) or sterile phosphate buffered saline (PBS) pH 7.4. Following the exposure, the cells were fixed with 20% formalin (final concentration 2% [v/v]) at 37°C for 30 min. The solution was discarded, and the plate was blotted dry. The cells were stained with the addition of 100 μL f CV (0.1% in 200 mM formic acid) to each well. After 30 min at room temperature, the dye solution was removed, and the plate was washed well with tap water and dried. The dye was then extracted from the stained cells with 100 μL of a 10% (v/v) acetic acid solution. The absorbance was measured at 630 nm, and the results were expressed as percentage cell viability relative to the control (cells treated with PBS).

[3] = tested on: differentiated 3T3-L1 adipocytes; assay: Intracellular lipid accumulation in differentiated 3T3-L1 adipocytes (ORO staining); format: cell-based, Mouse; conditions: 100 μM, 3 days, differentiated 3T3-L1, relative to control
Description: (§1) The differentiation of 3T3-L1 cells was performed as described by Ibrahim et al. with slight modifications. The preadipocyte cells were seeded at a concentration of 0.2 × 10^4 per 100 μL into each of the wells of a 96-well plate and were grown at 37°C with 5% CO2 for 3 days, until confluent. On Day 4, differentiation was induced by replacing the medium with 100 μL Differentiation Medium 1 (DM1, DMEM supplemented with final concentrations of 10 μg/mL insulin, 0.5 mM isobutyl methylxanthine, 1 μM dexamethasone, and 2 μM rosiglitazone) for further 3 days. On Day 8, DM1 was replaced with DM2 (DMEM with only 10 μg/mL insulin) for 3 days. Finally, DM2 was replaced with only DMEM, and the cells were exposed to the different concentrations (1–100 μM) of the test compounds for a further 3 days. Control cells were exposed to either the vehicle control or sterile PBS.
The ORO staining technique was used to detect lipid droplets in both differentiated adipocytes and OA-exposed hepatocytes. […] The ORO dye was then extracted with 60% isopropanol, and the absorbance was measured at 405 nm. For the 3T3-L1 cells, the percentage of lipid accumulation was relative to the control cells (PBS-treated) cells, with 100% lipid formation, while for HepG2, the results were expressed as the percentage of lipid accumulation relative to cells exposed to OA.

[4] = tested on: differentiated 3T3-L1 adipocytes; assay: Neutral lipid accumulation in differentiated 3T3-L1 adipocytes (NR staining); format: cell-based, Mouse; conditions: 100 μM, 3 days, differentiated 3T3-L1, relative to control
Description: as §1, with “Finally, DM2 was replaced with only DMEM, and the cells were exposed to the different concentrations (1–100 μM) of the test compounds for a further 3 days. Control cells were exposed to either the vehicle control or sterile PBS.” left out
With NR staining, the accumulation of neutral lipids was assessed in the differentiated 3T3-L1 cells and OA-induced lipid accumulation in HepG2 cells following treatment with the triterpenoids. […] Background fluorescence was measured at an excitation and an emission wavelength of 485 nm and 590 nm (Ex4850 and Em590), respectively. […] The dye was extracted from the stained cells with 100 μL PBS, and the fluorescence was measured again at Ex450 and Em590. The difference in fluorescence between the extracted dye and background fluorescence was calculated. The percentage of intracellular lipid accumulation relative to the untreated control cells was calculated.

HepG2 cells [5] = assay: Oleic acid-induced hepatic lipid accumulation in HepG2 cells (ORO staining); format: cell-based, human; conditions: 100 μM, 48 h, HepG2 exposed to 1 mM oleic acid
Description: (§2) The HepG2 cells were seeded in a 96-well plate at a cell density of 5 × 10^4 and left to attach overnight. The cells were incubated at 37°C, 5% CO2 for 48 h, and 1 mM OA (final concentration) to stimulate lipid accumulation. […] Control cells were exposed to either the vehicle control or sterile PBS.
The ORO staining technique was used to detect lipid droplets in both differentiated adipocytes and OA-exposed hepatocytes. The cells were fixed with 2% (v/v) formaldehyde for 30 min at 37°C. The formaldehyde was then discarded, and the plates were air-dried. The fixed cells were stained with ORO staining solution (three parts of 0.5% ORO (w/v) in 60% isopropyl alcohol and two parts of water) for 1 h. After staining, the excess ORO was discarded, and the plates were rinsed with water and dried. Microscopic images were acquired with an Olympus microscope (Olympus, Tokyo, Japan). The ORO dye was then extracted with 60% isopropanol, and the absorbance was measured at 405 nm. For the 3T3-L1 cells, the percentage of lipid accumulation was relative to the control cells (PBS-treated) cells, with 100% lipid formation, while for HepG2, the results were expressed as the percentage of lipid accumulation relative to cells exposed to OA.

HepG2 cells [6] = assay: Oleic acid-induced neutral lipid accumulation in HepG2 cells (NR staining); format: cell-based, human; conditions: 100 μM, 48 h, HepG2 exposed to 1 mM oleic acid
Description: as §2
With NR staining, the accumulation of neutral lipids was assessed in the differentiated 3T3-L1 cells and OA-induced lipid accumulation in HepG2 cells following treatment with the triterpenoids. The cells were washed with PBS and fixed with 4% formaldehyde for 1 h, and then the cells were stained with the NR staining solution (100 μM in 100% DMSO) in the dark for 3 h. Background fluorescence was measured at an excitation and an emission wavelength of 485 nm and 590 nm (Ex4850 and Em590), respectively. The dye solution was then discarded, the wells were then rinsed with PBS, and the plate was blotted dry. The dye was extracted from the stained cells with 100 μL PBS, and the fluorescence was measured again at Ex450 and Em590. The difference in fluorescence between the extracted dye and background fluorescence was calculated. The percentage of intracellular lipid accumulation relative to the untreated control cells was calculated.

PPARγ gene = assay: qRT-PCR PPARγ mRNA expression in differentiated 3T3-L1 adipocytes; format: cell-based, Mouse; conditions: 100 μM, 3 days
Description: (§3) The mRNA expression of selected lipogenic and lipolytic genes was quantified using qRT–PCR following the established protocol as described by Ndlovu et al.. […] The RNA was extracted with the […] RNA extraction kit. The RNA was then converted into cDNA using an iScript cDNA Synthesis Kit from […] following the manufacturer's protocols. qRT–PCR analysis was performed using Bio-Rad CFX Maestro software. All mRNA expression levels were standardized to ensure consistency using glyceraldehyde 3-phosphate dehydrogenase (GAPDH) as a reference gene. The primers used were designed using the BLAST NCBI online server (https://www.ncbi.nlm.nih.gov/tools/primer-blast/). Data was expressed as fold change relative to the untreated control.

C/EBPα gene = assay: qRT-PCR C/EBPα mRNA expression in differentiated 3T3-L1 adipocytes; format: cell-based, Mouse; conditions: 100 μM, 3 days
Description: as §3

HSL gene = assay: qRT-PCR HSL mRNA expression in differentiated 3T3-L1 adipocytes; format: cell-based, Mouse; conditions: 100 μM, 3 days
Description: as §3

AMPK gene = assay: qRT-PCR AMPK mRNA expression in differentiated 3T3-L1 adipocytes; format: cell-based, Mouse; conditions: 100 μM, 3 days, not significant versus control
Description: as §3

[7] = tested on: differentiated 3T3-L1 cells; assay: Glycerol release from isoproterenol-stimulated differentiated adipocytes (lipolysis); format: cell-based, Mouse; conditions: 100 μM, 3 days, then 100 nM isoproterenol 3 h
Description: Subsequently, the cells were exposed to isoproterenol (final concentration of 100 nM) for 3 h to stimulate lipolysis. The glycerol levels released into the medium were used as a measure of lipolysis evaluated using a commercial lipolysis colorimetric assay kit (MAK211) according to the manufacturer's instructions. Cell viability of the lipolysis-induced adipocytes was determined with CV staining.

Compound: CCCCCCCCCCC[C@@H](C[C@@H]1OC(=O)[C@H]1CCCCCC)OC(=O)[C@H](CC(C)C)NC=O [Orlistat, orlistat, reference compound]
- Pancreatic lipase Mode of inhibition [1]: Uncompetitive

Compound: CC(C)=CCCC(C(=O)O)C1CCC2(C)C3CCC4C(C)(CCC(O)C4(C)C)C3=CCC12C (stereo not drawn) [RA-5, 3β-hydroxylanosta-9,24-dien-21-oic acid]
- IC50 [1]: 27.6 ± 8.51 µM
- Ki [1]: 28.7 ± 8.84 µM
- Pancreatic lipase Mode of inhibition [1]: mixed type of inhibition
- cytotoxicity in the HepG2 model (abstract) (HepG2 cells [2]): lacked cytotoxicity
- decrease in lipid accumulation (ORO staining) [3]: 20.67%
- reduction in neutral lipid accumulation (NR staining) [4]: 10.37%
- reduction of OA-induced lipid accumulation (ORO staining) (HepG2 cells [5]): 23.47%
- reduction in neutral lipid accumulation (NR staining) (HepG2 cells [6]): 39%
- reduction of PPARγ gene expression (PPARγ gene): 77.40%
- reduction of C/EBPα gene expression (C/EBPα gene): 49.72%
- reduction of HSL gene expression (HSL gene): 66.54%
- increase in the expression of the AMPK gene (AMPK gene): 28.05%
- decrease in glycerol release [7]: 34.72%

Compound: C/C(=C/CC[C@H](C(=O)O)C1CC[C@]2(C)C3=CCC4C(C)(C)[C@H](O)CC[C@]4(C)C3CC[C@@]12C)CO (stereo partly drawn) [ARM-2, 3α,26-dihydroxytirucalla-7,24-dien-21-oic acid]
- Pancreatic lipase Mode of inhibition [1]: Noncompetitive
- Ki ([1]; Lineweaver–Burk, substrate 2–10 mM, mean ± SEM (n = 3), read-out: Pancreatic lipase Ki): 52.9 ± 7.19 µM
- IC50 ([1]; porcine PNLIP, p-NPP substrate, pH 7.4, 37°C, mean ± SEM (n = 3), read-out: Pancreatic lipase IC50): 35.8 ± 12.4 µM
- cytotoxicity in the HepG2 model (abstract) (HepG2 cells [2]): lacked cytotoxicity
- decrease in lipid accumulation (ORO staining) [3]: 22.21%
- reduction in neutral lipid accumulation (NR staining) [4]: 19.27%
- reduction of OA-induced lipid accumulation (ORO staining) (HepG2 cells [5]): 31.56%
- reduction in neutral lipid accumulation (NR staining) (HepG2 cells [6]): 40%
- reduction of PPARγ gene expression (PPARγ gene): 59.30%
- reduction of C/EBPα gene expression (C/EBPα gene): 55.65%
- reduction of HSL gene expression (HSL gene): 60.38%
- increase in the expression of the AMPK gene (AMPK gene): 39.10%
- decrease in glycerol release [7]: 36.47%
